Source: ChEMBL document CHEMBL5131437, “Development of novel 2-aminoalkyl-6-(2-hydroxyphenyl)pyridazin-3(2H)-one derivatives as balanced multifunctional agents against Alzheimer's disease” (Eur J Med Chem, 2022)
pIC50: −log10 of the molar value. The source made the active and inactive calls. The rule behind the calls is not given here.

Columns and labels:
[1] = molecular target: Amyloid-beta precursor protein (Homo sapiens) (UniProt P05067); test: Inhibition of amyloid beta (1 to 42 ) (unknown origin) self-induced amyloid beta (1 to 42 ) disaggregation at 25 uM pre incubated for 24 hrs to form fibril followed by compound addition incubated for another 24 hrs by Thioflavin T based fluorometric assay
[2] = molecular target: Amyloid-beta precursor protein (Homo sapiens) (UniProt P05067); test: Inhibition of Cu2+ induced amyloid beta (1 to 42 residues) (unknown origin) disaggregation; settings: concentration not given here
[3] = molecular target: Amyloid-beta precursor protein (Homo sapiens) (UniProt P05067); test: Inhibition of amyloid beta (1 to 42 ) (unknown origin) self-induced aggregation assessed as reduction in number of amyloid beta (1 to 42 residues) fibrils at 25 uM incubated for 24 hrs by Thioflavin T based fluorometric assay
[4] = tested on: Mus musculus; test: Antialzheimer activity against scopolamine-induced cognitive deficit mouse model assessed as decrease in lipid peroxidation at 17.7 mg/kg, IG by step-through passive avoidance test; type: functional
[5] = tested on: Mus musculus; test: Antialzheimer activity against scopolamine-induced cognitive deficit mouse model assessed as increase in vitality of SOD at 5.9 mg/kg, IG by step-through passive avoidance test; type: functional
[6] = Metal chelating activity assessed as Fe2+-compound complex by measuring enhancement of absorption intensity at 246 nm by UV-visible spectrophotometry
[7] = Metal chelating activity assessed as Fe3+-compound complex by measuring enhancement of absorption intensity at 246 nm by UV-visible spectrophotometry
[8] = tested on: Mus musculus; test: Antialzheimer activity against scopolamine-induced cognitive deficit mouse assessed as improvement in memory impairment by measuring reduction in number of errors administrated intragastric by step-through passive avoidance test; type: functional, organism-based; settings: dose 2-17.7 mg/kg, route ig, DDE = dose-dependent effect
[9] = tested on: Mus musculus; test: Neuroprotective activity in scopolamine-induced cognitive deficit mouse assessed as improvement in memory impairment at 5.9 mg/kg, IG in presence of donepezil at 5.0 mg/kg; type: functional, organism-based
[10] = molecular target: Amyloid-beta precursor protein (Homo sapiens) (UniProt P05067); test: Inhibition of self-induced amyloid beta (1 to 42) (unknown origin) aggregation by Thioflavin T based fluorometric assay relative to control; design: concentration or dose not given beside the values; settings: concentration not given here
[11] = Permeability of the compound in PBS/EtOH buffer (70:30) by PAMPA-BBB assay; type: ADME; settings: read-out: permeability
[12] = molecular target: Acetylcholinesterase (Electrophorus electricus, UniProt O42275); test: Inhibition of electric eel AChE by Ellman's method; settings: read-out: IC50
[13] = Metal chelating activity assessed as Zn2+-compound complex by measuring enhancement of absorption intensity at 246 nm by UV-visible spectrophotometry
[14] = molecular target: Amyloid-beta precursor protein (Homo sapiens) (UniProt P05067); test: Inhibition of Cu2+ induced amyloid beta (1 to 42 ) (unknown origin) aggregation assessed as fibrils incubated for 24 hrs by compound addition incubated for 24 hrs
[15] = Drug concentration in mouse brain at 30 mg/kg administered intragastrically measured after 0.5 hrs; type: ADME, organism-based; settings: po, route ig, read-out: Ct
[16] = molecular target: Amyloid-beta precursor protein (Homo sapiens) (UniProt P05067); test: Inhibition of Cu2+ induced amyloid beta (1 to 42 residues) (unknown origin) aggregation at 25 uM relative to control
[17] = tested on: BV-2; test: Anti-neuroinflammation activity in mouse BV-2 cells assessed as decrease in LPS-induced TNFalpha production at 10 uM by ELISA; type: functional; design: scale not given: the % may be the effect or the level left
[18] = tested on: Mus musculus; test: Antialzheimer activity against scopolamine-induced cognitive deficit mouse model assessed as increase in AChE content at 17.7 mg/kg, IG by step-through passive avoidance test; type: functional
[19] = molecular target: Amyloid-beta precursor protein (Homo sapiens) (UniProt P05067); test: Inhibition of Cu2+ induced amyloid beta (1 to 42 residues) (unknown origin) aggregation; settings: concentration not given here
[20] = tested on: Mus musculus; test: Antialzheimer activity against scopolamine-induced cognitive deficit mouse model assessed as decrease in lipid peroxidation at 2.0 mg/kg, IG by step-through passive avoidance test; type: functional
[21] = tested on: BV-2; test: Anti-neuroinflammation activity in mouse BV-2 cells assessed as decrease in LPS-induced TNF-alpha production at 2.5 uM by ELISA; type: functional; design: scale not given: the % may be the effect or the level left; settings: time 24 hrs
[22] = tested on: Butyrylcholinesterase (Rattus norvegicus); test: Inhibition of rat serum BuChE at 10 uM by Ellman's method relative to control
[23] = tested on: BV-2; test: Anti-neuroinflammation activity in mouse BV-2 cells assessed as decrease in LPS-induced TNFalpha production at 2.5 uM by ELISA; type: functional; design: scale not given: the % may be the effect or the level left
[24] = Drug concentration in mouse plasma at 30 mg/kg administered intragastrically measured after 0.5 hrs; type: ADME, organism-based; settings: po
[25] = molecular target: Amyloid-beta precursor protein (Homo sapiens) (UniProt P05067); test: Inhibition of Cu2+ induced amyloid beta (1 to 42 residues) (unknown origin) assessed as disaggregation at 25 uM relative to control; design: scale not given: the % may be the effect or the level left
[26] = tested on: Mus musculus; test: Antialzheimer activity against scopolamine-induced cognitive deficit mouse model assessed as increase in vitality of SOD at 2.0 mg/kg, IG by step-through passive avoidance test; type: functional
[27] = tested on: Mus musculus; test: Antialzheimer activity against scopolamine-induced cognitive deficit mouse model assessed as increase in AChE content at 5.9 mg/kg, IG by step-through passive avoidance test; type: functional
[28] = molecular target: Amyloid-beta precursor protein (Homo sapiens) (UniProt P05067); test: Inhibition of self-induced amyloid beta (1 to 42) (unknown origin) disaggregation by Thioflavin T based fluorometric assay relative to control; design: concentration or dose not given beside the values; settings: concentration not given here
[29] = tested on: BV-2; test: Anti-neuroinflammation activity in mouse BV-2 cells assessed as decrease in LPS-induced TNF-alpha production at 0.5 uM by ELISA; type: functional; design: scale not given: the % may be the effect or the level left; settings: time 24 hrs
[30] = tested on: Mus musculus; test: Antialzheimer activity against scopolamine-induced cognitive deficit mouse assessed as improvement in memory impairment by measuring latency time administrated intragastric by step-through passive avoidance test; type: functional, organism-based; settings: dose 2-17.7 mg/kg, route ig, DDE = dose-dependent effect
[31] = tested on: Mus musculus; test: Antialzheimer activity against scopolamine-induced cognitive deficit mouse model assessed as increase in vitality of SOD at 17.7 mg/kg, IG by step-through passive avoidance test; type: functional
[32] = Antioxidant activity of compound assessed as trolox equivalent of ORAC radical scavenging activity by ORAC-FL assay; type: functional
[33] = Metal chelating activity assessed as Cu2+-compound complex by measuring enhancement of absorption intensity at 246 nm by UV-visible spectrophotometry
[34] = tested on: Mus musculus; test: Antialzheimer activity against scopolamine-induced cognitive deficit mouse model assessed as decrease in lipid peroxidation at 5.9 mg/kg, IG by step-through passive avoidance test; type: functional
[35] = Metal chelating activity assessed as AL3+-compound complex by measuring enhancement of absorption intensity at 246 nm by UV-visible spectrophotometry
[36] = Neurotoxicity in scopolamine-induced cognitive deficit mouse model measured after re-increasement at 2.0 to 17.7 mg/kg, IG; type: toxicity, organism-based; settings: in vivo, po, dose 2-17.7 mg/kg
[37] = Inhibition of reactive oxygen species production using Cu-ascorbate redox system by coumarin-3-carboxylic acid dye based fluorescence analysis; type: functional
[38] = tested on: BV-2; test: Anti-neuroinflammation activity in mouse BV-2 cells assessed as decrease in LPS-induced TNFalpha production at 0.5 uM by ELISA; type: functional; design: scale not given: the % may be the effect or the level left
[39] = Ratio of drug concentration in brain to plasma of mouse at 30 mg/kg administered intragastrically measured after 0.5 hrs; type: ADME, organism-based; settings: po, route ig, read-out: logBB (converted)
[40] = molecular target: Amyloid-beta precursor protein (Homo sapiens) (UniProt P05067); test: Inhibition of Cu2+ induced amyloid beta (1 to 42 ) (unknown origin) aggregation assessed as fibrils formation at 25 uM pre incubated for 24 hrs followed by compound addition incubated for another 24 hrs by Thioflavin T based fluorometric assay
[41] = tested on: BV-2; test: Anti-neuroinflammation activity in mouse BV-2 cells assessed as decrease in LPS-induced TNF-alpha production at 10 uM by ELISA; type: functional; design: scale not given: the % may be the effect or the level left

Chain of Amyloid-beta precursor protein (Homo sapiens) (P05067 whole entry, the tested form may be a part): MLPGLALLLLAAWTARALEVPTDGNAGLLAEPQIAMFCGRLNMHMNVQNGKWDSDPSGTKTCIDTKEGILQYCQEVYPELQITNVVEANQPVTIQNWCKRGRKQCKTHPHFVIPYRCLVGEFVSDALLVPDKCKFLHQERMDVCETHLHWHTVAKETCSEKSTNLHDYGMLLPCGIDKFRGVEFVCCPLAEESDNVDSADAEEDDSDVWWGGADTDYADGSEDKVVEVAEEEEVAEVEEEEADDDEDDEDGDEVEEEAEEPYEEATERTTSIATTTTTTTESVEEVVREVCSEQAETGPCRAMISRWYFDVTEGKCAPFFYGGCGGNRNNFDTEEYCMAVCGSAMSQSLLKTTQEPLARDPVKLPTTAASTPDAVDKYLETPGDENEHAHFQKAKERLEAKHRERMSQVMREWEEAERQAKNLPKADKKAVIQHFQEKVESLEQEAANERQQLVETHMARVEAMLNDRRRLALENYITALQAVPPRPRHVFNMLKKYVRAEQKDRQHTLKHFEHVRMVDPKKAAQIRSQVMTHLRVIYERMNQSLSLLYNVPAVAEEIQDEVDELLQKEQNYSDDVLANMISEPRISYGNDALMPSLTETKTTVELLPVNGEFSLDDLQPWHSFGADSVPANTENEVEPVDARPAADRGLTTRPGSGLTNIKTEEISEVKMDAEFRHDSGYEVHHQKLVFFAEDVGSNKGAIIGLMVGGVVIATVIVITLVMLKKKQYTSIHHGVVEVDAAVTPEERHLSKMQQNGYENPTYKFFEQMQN
Chain of Acetylcholinesterase (O42275 whole entry): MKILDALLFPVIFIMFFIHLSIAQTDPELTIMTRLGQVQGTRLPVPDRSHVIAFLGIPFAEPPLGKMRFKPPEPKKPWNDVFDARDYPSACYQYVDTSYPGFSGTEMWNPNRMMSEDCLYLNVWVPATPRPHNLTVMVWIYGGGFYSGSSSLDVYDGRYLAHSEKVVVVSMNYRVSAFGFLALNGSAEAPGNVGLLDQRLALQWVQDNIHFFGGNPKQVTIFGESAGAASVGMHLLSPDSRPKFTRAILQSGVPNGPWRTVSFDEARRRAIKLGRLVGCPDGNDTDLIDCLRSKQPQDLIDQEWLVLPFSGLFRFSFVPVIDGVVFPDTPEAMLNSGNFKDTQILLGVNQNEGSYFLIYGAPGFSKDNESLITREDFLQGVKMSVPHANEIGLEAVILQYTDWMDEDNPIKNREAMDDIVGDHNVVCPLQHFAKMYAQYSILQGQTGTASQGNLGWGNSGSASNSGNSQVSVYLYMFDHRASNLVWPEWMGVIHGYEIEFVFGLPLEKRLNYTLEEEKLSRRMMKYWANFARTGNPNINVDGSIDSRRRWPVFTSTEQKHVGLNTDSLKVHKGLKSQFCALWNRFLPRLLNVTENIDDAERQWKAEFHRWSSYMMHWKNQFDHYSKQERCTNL

CCN(CCCCCCn1nc(-c2cc(N(C)C)ccc2O)ccc1=O)Cc1ccccc1N(C)C
inhibition [1]: Active
inhibition [2]: 1.17%
inhibition [3]: Active
Activity [4]: 2.04 nmol/mg
Activity [5]: 146.67 U/mg
Activity [6]: Active
Activity [7]: Active
Activity [8]: Dde
Activity [9]: Active
inhibition [10]: 99.1%
Papp at 16 h [11]: 13.5 ×10⁻⁶ cm/s
pIC50 [12]: 6.70
Activity [13]: Active
Activity [14]: Active
concentration at 0.5 h [15]: 82.9 ng/g
inhibition [16]: 99.6%
Activity [17]: 70.2%
Activity [18]: 30.3 µg/mg
inhibition [19]: 2.18%
Activity [20]: 2.73 nmol/mg
Activity [21]: 52.6%
inhibition [22]: 18.2%
Activity [23]: 46.8%
concentration at 0.5 h [24]: 324 ng/mL
Activity [25]: 94.8%
Activity [26]: 131.33 U/mg
Activity [27]: 27.3 µg/mg
inhibition [28]: 89%
Activity [29]: 26.3%
Activity [30]: Dde
Activity [31]: 161.02 U/mg
Activity [32]: 3.03
Activity [33]: Active
Activity [34]: 2.33 nmol/mg
Activity [35]: Active
Activity [36]: Non-Toxic
inhibition [37]: Active
Activity [38]: 35.4%
Kp at 0.5 h [39]: 0.245
Activity [40]: Active
Activity [41]: 73.7%
